Data as given in patent US11220482B2, “Aminopyridinemethanol compounds and their use” (UNIVERSITE AMIENS PICARDIE JULES VERNE, priority 2017, dated 2022).
Counter-ions that a name gives are not always drawn.

Experiments:
[1] = tested on: Plasmodium falciparum W2; assay: Plasmodium falciparum susceptibility assay, first round (SYBR Green I); type: cell-based; details: W2, first round, 48-h incubation, strain resistant to CQ, sensitive to MQ, read-out: IC50 (nM) Plasmodium falciparum W2 (converted)
[2] = tested on: Plasmodium falciparum 3D7; assay: as above; type: cell-based; details: 3D7, first round, 48-h incubation, strain susceptible to CQ, decreased susceptibility to MQ, read-out: IC50 (nM) Plasmodium falciparum 3D7 (converted)

SMILES | IC50 [1] | IC50 [2]
CCCCCCCNC[C@H](O)c1cc(-c2ccc(C(F)(F)F)cc2)nc(C(F)(F)F)c1 [Compound 1f, (R)-2-(Heptylamino)-1-(2-(trifluoromethyl)-6-(4-(trifluoromethyl)phenyl)pyridin-4-yl)ethanol] | 3.5 nM | 54.4 nM
O[C@@H](CNCCCN1CCN(C(c2ccccc2)c2ccccc2)CC1)c1cc(-c2ccc(C(F)(F)F)cc2)nc(C(F)(F)F)c1 [1n•HCl, (R)-2-((3-(4-benzhydrylpiperazin-1-yl)propyl)amino)-1-(2-(trifluoromethyl)-6-(4-(trifluoromethyl)phenyl)pyridin-4-yl)ethanol hydrochloride] |  | 125 nM
CCCCCCCNC[C@@H](O)c1cc(-c2ccc(C(F)(F)F)cc2)nc(C(F)(F)F)c1 [Compound 1e, (S)-2-(Heptylamino)-1-(2-(trifluoromethyl)-6-(4-(trifluoromethyl)phenyl)pyridin-4-yl)ethanol] | 5.6 nM | 17.7 nM
CCCCCCNC[C@H](O)c1cc(-c2ccc(C(F)(F)F)cc2)nc(C(F)(F)F)c1 [Compound 1d, (R)-2-(Hexylamino)-1-(2-(trifluoromethyl)-6-(4-(trifluoromethyl)phenyl)pyridin-4-yl)ethanol] | 8.3 nM | 32.3 nM
CCCCCNC[C@H](O)c1ccc(-c2ccc(C(F)(F)F)cc2)nc1C(F)(F)F [Compound 30d, (R)-2-(Pentylamino)-1-(2-(trifluoromethyl)-6-(4-(trifluoromethyl)phenyl)pyridin-3-yl)ethanol] | 551 nM | 558 nM
COC[C@H](Cc1ccccc1)NC[C@H](O)c1cc(-c2ccc(C(F)(F)F)cc2)nc(C(F)(F)F)c1 [Compound 1j, (R)-2-(((S)-1-Methoxy-3-phenylpropan-2-yl)amino)-1-(2-(trifluoromethyl)-6-(4-(trifluoromethyl)phenyl)pyridin-4-yl)ethanol] | 14.4 nM | 32.8 nM
CCCCCCNC[C@@H](O)c1cc(-c2ccc(C(F)(F)F)cc2)nc(C(F)(F)F)c1 [Compound 1c, (S)-2-(Hexylamino)-1-(2-(trifluoromethyl)-6-(4-(trifluoromethyl)phenyl)pyridin-4-yl)ethanol] |  | 47.1 ± 13.2 nM
O[C@H](CNCCCN1CCN(C(c2ccccc2)c2ccccc2)CC1)c1cc(-c2ccc(C(F)(F)F)cc2)nc(C(F)(F)F)c1 [1m•HCl, (S)-2-((3-(4-benzhydrylpiperazin-1-yl)propyl)amino)-1-(2-(trifluoromethyl)-6-(4-(trifluoromethyl)phenyl)pyridin-4-yl)ethanol hydrochloride] | 67 ± 9.3 nM | 
O[C@H](CNCCCN1CCN(C(c2ccccc2)c2ccccc2)CC1)c1cc(-c2ccc(C(F)(F)F)cc2)nc(C(F)(F)F)c1 [Compound 1m, (S)-2-((3-(4-benzhydrylpiperazin-1-yl)propyl)amino)-1-(2-(trifluoromethyl)-6-(4-(trifluoromethyl)phenyl)pyridin-4-yl)ethanol] |  | 126 nM

Further lines, results first:

IC50 [1] | IC50 [2] | SMILES
25.2 ± 1.2 nM | 97 ± 14 nM | CCCCCCCNC[C@@H](O)c1ccc(-c2ccc(C(F)(F)F)cc2)nc1C(F)(F)F [Compound 30g, (S)-2-(Heptylamino)-1-(2-(trifluoromethyl)-6-(4-(trifluoromethyl)phenyl)pyridin-3-yl)ethanol]
212 ± 38.6 nM | 111 ± 8.3 nM | O[C@H](CNCCCN1CCN(C(c2ccccc2)c2ccccc2)CC1)c1ccc(-c2ccc(C(F)(F)F)cc2)nc1C(F)(F)F [Compound 30o]
89.6 nM | 84.9 nM | O[C@@H](CNCCCN1CCN(C(c2ccccc2)c2ccccc2)CC1)c1ccc(-c2ccc(C(F)(F)F)cc2)nc1C(F)(F)F [Compound 30p, (R)-2-((3-(4-Benzhydrylpiperazin-1-yl)propyl)amino)-1-(2-(trifluoromethyl)-6-(4-(trifluoromethyl)phenyl)pyridin-3-yl)ethanol]
523 nM | 575 nM | CCCCCCNC[C@H](O)c1ccc(-c2ccc(C(F)(F)F)cc2)nc1C(F)(F)F [Compound 30f, (R)-2-(Hexylamino)-1-(2-(trifluoromethyl)-6-(4-(trifluoromethyl)phenyl)pyridin-3-yl)ethanol]
